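Five compound concentrations were applied to cells in 96-well plates for 48 hours; endpoints were derived by simple linear interpolation of the resulting dose-response curve. The concentration for 50% growth inhibition is given as GI50.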 Activity calls are given as the source filed them. No stated cut-off is given here; in the data, active = GI50 up to about 1.1 µM and inactive = higher. Some results are limits rather than exact numbers.

Holding throughout (assay): DTP human tumour cell line panel, 48 h
Experiment [1] has as its system MDA-N.
Experiment [2] concerns KM12.
In experiment [3] the test system is DU-145.
Experiment [4] relates to SK-MEL-2.
Experiment [5] deals with SK-OV-3.
For experiment [6], the system named is HOP-62.
The subject of experiment [7] is M14.
Experiment [8] concerns HCT-15.
Experiment [9] relates to SR.
Experiment [10] deals with CAKI-1.
Experiment [11] deals with ACHN.
Experiment [12] concerns OVCAR-4.
Experiment [13] relates to NCI-H226.
Experiment [14] relates to UACC-257.
Experiment [15] deals with HT-29.
Experiment [16] relates to TK-10.
The test system of experiment [17] is LOX IMVI.
Experiment [18] deals with SK-MEL-5.
Experiment [19] deals with A549.
The subject of experiment [20] is K562.

The term GI50 denotes the concentration at which growth is held to half of that of the control. On to `Nc1ccccc1.O=P(O)(OP(=O)(O)c1ccccc1)c1ccccc1`, for which the GI50 in experiment [1], in experiment [2], in experiment [3], in experiment [4], in experiment [5] and in experiment [6] was > 100 µM (inactive) in each case. Further, the GI50 in experiment [7] is > 100 µM (inactive); in experiment [8], 89.3 µM; in experiment [9] it was > 100 µM (inactive); in [10], > 100 µM (inactive); in experiment [11] it was > 100 µM (inactive); in experiment [12] it was > 100 µM (inactive). Also, the GI50 in experiment [13], in experiment [14], in [15], in experiment [16], in experiment [17] and in experiment [18] was > 100 µM (inactive) in each case. Also, the GI50 in [19] and in experiment [20] was > 100 µM (inactive) throughout.
For the compound `CCCCCCCCCCCCCC(=O)NO`, the GI50 is 25.7 µM (inactive) in experiment [1]; 9.42 µM (inactive) in experiment [2]; 3.35 µM (inactive) in [3]; 23.5 µM (inactive) in experiment [4]; 30.5 µM (inactive) in [5]; 17.4 µM (inactive) in [6]. The GI50 in experiment [7] was 15.8 µM (inactive); in [8] it was 3.72 µM; in experiment [9], 0.518 µM (active); in [10], 17.3 µM (inactive); in [11], 14.9 µM (inactive); in [12], 6.79 µM (inactive). The GI50 in [13] is 5.05 µM (inactive); in [14], 29.2 µM (inactive); in [15], 8.99 µM (inactive); in [16], 19.9 µM (inactive); in [17], 3.99 µM (inactive); in experiment [18] it was 9.64 µM (inactive). In addition, the figures for the GI50 in experiment [19] and in experiment [20] were 9.91 µM (inactive) and 3.03 µM (inactive), respectively.
Turning to `CC1=NN(c2nc(N)nc(CBr)n2)C(C)(C)C1`, the GI50 is 11.5 µM (inactive) in experiment [1]; 10.7 µM (inactive) in [2]; 3.3 µM (inactive) in experiment [3]; 12.9 µM (inactive) in experiment [4]; 17.3 µM (inactive) in experiment [5]; 19.7 µM (inactive) in experiment [6]. The GI50 in experiment [7] is 5.79 µM (inactive); in experiment [8], 3.61 µM; in experiment [9] it was 2.88 µM (inactive); in experiment [10], 1.47 µM (inactive); in experiment [11] it was 3.56 µM (inactive); in experiment [12], 7.4 µM (inactive). The GI50 was 2.61 µM (inactive) in experiment [13]; 11.9 µM (inactive) in experiment [14]; 4.98 µM (inactive) in [15]; 4.25 µM (inactive) in experiment [16]; 0.708 µM (active) in experiment [17]; 11.3 µM (inactive) in experiment [18]. In addition, the GI50 in experiment [19] was 12.6 µM (inactive); in [20] it was 2.02 µM (inactive).
As to `CCC(=O)C(C(C)/C=C/CCSc1ccccc1)C(O)CCCCCC(=O)OC` (stereo not given), the GI50 in [1] is > 100 µM (inactive); in [2] it was 40.6 µM (inactive); in experiment [3], > 100 µM (inactive); in experiment [4], > 100 µM (inactive); in [5], > 100 µM (inactive); in experiment [6] it was > 100 µM (inactive). The GI50 in [7] is > 100 µM (inactive); in [8] it was 88.7 µM; in [9], 32.9 µM (inactive); in experiment [10] it was 67.5 µM (inactive); in experiment [11] it was > 100 µM (inactive); in [12], > 100 µM (inactive). Besides, the GI50 is > 100 µM (inactive) in experiment [13]; 58.9 µM (inactive) in experiment [14]; > 100 µM (inactive) in experiment [15]; > 100 µM (inactive) in experiment [16]; 81.3 µM (inactive) in [17]; 36.8 µM (inactive) in [18]. In addition, the results for the GI50 in experiment [19] and in [20] were 91.6 µM (inactive) and 46.3 µM (inactive), respectively.
With `COc1cccc(C2CC(C)(N3CCCC3)Oc3cc4c(cc32)OCO4)c1O` (stereo not given), the GI50 is 2.54 µM (inactive) in [1]; 22 µM (inactive) in [2]; 32 µM (inactive) in [3]; 16.5 µM (inactive) in [4]; 29.6 µM (inactive) in experiment [5]; 27 µM (inactive) in experiment [6]. Moreover, the GI50 was 17.3 µM (inactive) in experiment [7]; 11.3 µM in experiment [8]; 3.81 µM (inactive) in [9]; 31.7 µM (inactive) in experiment [10]; 36.7 µM (inactive) in [11]; 48.1 µM (inactive) in experiment [12]. Further, the GI50 in [13] was 19.1 µM (inactive); in experiment [14] it was 35.4 µM (inactive); in [15], 19.1 µM (inactive); in [16] it was 37.3 µM (inactive); in [17] it was 28.8 µM (inactive); in experiment [18] it was 12.4 µM (inactive). In addition, the GI50 in experiment [19] is 31.9 µM (inactive); in experiment [20], 9.31 µM (inactive).
As for `COC(=O)C1=C(C(=O)NNc2ccccc2)N(c2cccnc2Cl)C(c2ccccc2)=CC1c1ccccc1` (stereo not given), the GI50 in experiment [1] is 20.5 µM (inactive); in experiment [2], 29.6 µM (inactive); in experiment [3], 80.9 µM (inactive); in experiment [4], 22.4 µM (inactive); in experiment [5] it was > 100 µM (inactive); in [6], > 100 µM (inactive). The GI50 in experiment [7] is 33.3 µM (inactive); in experiment [8] it was 39.3 µM; in experiment [9], 24 µM (inactive); in experiment [10] it was 56.5 µM (inactive); in experiment [11], 76.7 µM (inactive); in experiment [12], > 100 µM (inactive). Moreover, the GI50 in [13] was > 100 µM (inactive); in [14], 41.4 µM (inactive); in [15] it was 58.6 µM (inactive); in experiment [16] it was 54.6 µM (inactive); in [17], 30.5 µM (inactive); in experiment [18] it was 34 µM (inactive). Further, the GI50 in [19] is 40.9 µM (inactive); in experiment [20] it was 20 µM (inactive).
`CCN(CC)CCCNc1nncc2cc3c([nH]c4ccc(OC)cc43)c(C)c12`: the GI50 in experiment [1] was 10.4 µM (inactive); in [2], 4.2 µM (inactive); in experiment [3] it was 4.03 µM (inactive); in experiment [4], 17.7 µM (inactive); in experiment [5] it was 9.64 µM (inactive); in experiment [6], 4.23 µM (inactive). Further, the GI50 in experiment [7] is 12.9 µM (inactive); in experiment [8], 19.3 µM; in [9], 4.63 µM (inactive); in [10], 11.5 µM (inactive); in [11], 8.26 µM (inactive); in experiment [12], 3.27 µM (inactive). Further, the GI50 in experiment [13] is 7.41 µM (inactive); in experiment [14], 17.6 µM (inactive); in [15] it was 3.4 µM (inactive); in experiment [16] it was 15.3 µM (inactive); in experiment [17] it was 3.84 µM (inactive); in experiment [18], 14.7 µM (inactive). Besides, the GI50 in [19] is 9.82 µM (inactive); in [20], 3.34 µM (inactive).
As for `CC(C)/C(Cl)=N/OC(=O)Nc1ccc(Br)cc1`, the GI50 in experiment [1] is 4.83 µM (inactive); in [2] it was 12.9 µM (inactive); in experiment [3], 13.7 µM (inactive); in experiment [4] it was 16.8 µM (inactive); in [5] it was 16.7 µM (inactive); in experiment [6] it was 16.9 µM (inactive). For the same compound, the GI50 in experiment [7] was 2.78 µM (inactive); in experiment [8], 2.12 µM; in experiment [9] it was 1.83 µM (inactive); in experiment [10], 1.73 µM (inactive); in experiment [11], 1.74 µM (inactive); in [12] it was 12.7 µM (inactive). Also, the GI50 in experiment [13] is 16.7 µM (inactive); in experiment [14], 15.2 µM (inactive); in [15] it was 5.83 µM (inactive); in [16], 13.2 µM (inactive); in experiment [17] it was 1.32 µM (inactive); in experiment [18], 12.9 µM (inactive). The GI50 in experiment [19] was 18.2 µM (inactive); in experiment [20], 1.23 µM (inactive).
For `COC(=O)C1CCC(=O)N1CN(C(C)=O)c1ccccc1` (stereo not given), the GI50 in experiment [1], in experiment [2], in [3], in [4], in [5] and in experiment [6] was > 100 µM (inactive) each time. Moreover, the GI50 in [7] was > 100 µM (inactive); in [8], above 100 µM; in experiment [9], 3.39 µM (inactive); in experiment [10], > 100 µM (inactive); in experiment [11], > 100 µM (inactive); in experiment [12], > 100 µM (inactive). The GI50 in experiment [13], in experiment [14], in [15], in [16], in experiment [17] and in experiment [18] was > 100 µM (inactive) in each case. The GI50 in [19] and in experiment [20] was > 100 µM (inactive) each time.
For the compound `C[N+]1(CCC[N+]2(C)CC3C4C=CC(CC4)C3C2)CCOCC1` (stereo not given), the GI50 in [1], in [2], in [3], in experiment [4], in experiment [5] and in experiment [6] was > 100 µM (inactive) each time. Further, the GI50 in [7] is > 100 µM (inactive); in experiment [8] it was above 100 µM; in [9] it was > 100 µM (inactive); in experiment [10] it was > 100 µM (inactive); in [11] it was > 100 µM (inactive); in [12] it was > 100 µM (inactive). Besides, the GI50 was > 100 µM (inactive) in [13]; > 100 µM (inactive) in [14]; > 100 µM (inactive) in [15]; > 100 µM (inactive) in experiment [16]; > 100 µM (inactive) in [17]; 18.5 µM (inactive) in experiment [18]. For the same compound, the GI50 in experiment [19] and in [20] was > 100 µM (inactive) throughout.

Source of the values: ChEMBL document CHEMBL1201862, “PubChem BioAssay data set” (2004).
